In brackets after ≈: the same amount, converted by molar mass.
Assays:
[1] = Lipophilicity, logD of compound at pH 7.5; format: physicochemical; conditions: buffer
[2] = target: Mitogen-activated protein kinase 7 (Homo sapiens, UniProt Q13164); experiment: Inhibition of recombinant human GST-tagged ERK5 (1 to 398 assessed as phosphorylated peptide substrate incubated for 60 mins by TR-FRET based biochemical assay
[3] = Solubility of compound in PBS buffer at pH 6.5; format: physicochemical

Chain of Mitogen-activated protein kinase 7 (Q13164 whole entry): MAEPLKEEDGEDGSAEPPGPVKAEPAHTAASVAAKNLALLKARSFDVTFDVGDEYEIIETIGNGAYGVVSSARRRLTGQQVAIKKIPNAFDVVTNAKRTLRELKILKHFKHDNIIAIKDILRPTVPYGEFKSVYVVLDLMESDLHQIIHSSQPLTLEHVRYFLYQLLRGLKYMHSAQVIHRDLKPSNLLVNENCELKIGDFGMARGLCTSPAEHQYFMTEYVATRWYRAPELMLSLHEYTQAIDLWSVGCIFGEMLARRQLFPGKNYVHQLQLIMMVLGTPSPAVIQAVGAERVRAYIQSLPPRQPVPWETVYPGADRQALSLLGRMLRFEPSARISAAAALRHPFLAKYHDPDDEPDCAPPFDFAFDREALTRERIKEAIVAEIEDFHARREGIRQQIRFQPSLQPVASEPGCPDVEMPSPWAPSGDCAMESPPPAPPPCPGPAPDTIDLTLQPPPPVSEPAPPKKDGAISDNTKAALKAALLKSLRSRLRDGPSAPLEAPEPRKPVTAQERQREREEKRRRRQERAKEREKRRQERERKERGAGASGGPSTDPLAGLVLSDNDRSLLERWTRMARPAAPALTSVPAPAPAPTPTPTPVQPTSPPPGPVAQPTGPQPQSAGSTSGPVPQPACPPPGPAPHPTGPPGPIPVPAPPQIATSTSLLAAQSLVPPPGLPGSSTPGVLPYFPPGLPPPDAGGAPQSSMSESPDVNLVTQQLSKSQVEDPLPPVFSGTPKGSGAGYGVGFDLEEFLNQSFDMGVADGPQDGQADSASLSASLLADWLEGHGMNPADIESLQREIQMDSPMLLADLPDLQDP

logD [1]: 2.68
IC50 [2]: 1.23 µM
solubility [3]: 7 µg/mL (≈ 6.77 µM)
Compound: Cc1ncsc1-c1ccc(CNC(=O)[C@@H]2C[C@@H](O)CN2C(=O)[C@@H](NC(=O)COCCOCCNC(=O)COc2cnc3c(C4CCN(C(=O)c5ccc(OC(F)(F)F)cc5)CC4)ncnc3c2)C(C)(C)C)cc1
